Reference: ChEMBL document CHEMBL4130617, “Prenylated 2-Phenoxychromones and Flavonoids from Epimedium brevicornum and Revised Structures of Epimedonins A and B” (J Nat Prod, 2018)

Key:
HL-60 [1] = assay: Growth inhibition of human HL60 cells at 40 uM after 48 hrs by MTS assay relative to control; type: functional; conditions: HL-60, 48 h, read-out: GI
SMMC-7721 [2] = assay: Growth inhibition of human SMMC7721 cells at 40 uM after 48 hrs by MTS assay relative to control; type: functional; conditions: SMMC-7721, 48 h, read-out: GI
A549 [3] = assay: Growth inhibition of human A549 cells at 40 uM after 48 hrs by MTS assay relative to control; type: functional; conditions: A549, 48 h, read-out: GI
MCF7 [4] = assay: Growth inhibition of human MCF7 cells at 40 uM after 48 hrs by MTS assay relative to control; type: functional; conditions: MCF7, 48 h, read-out: GI
SW480 [5] = assay: Growth inhibition of human SW480 cells at 40 uM after 48 hrs by MTS assay relative to control; type: functional; conditions: SW480, 48 h, read-out: GI
HL-60 [6] = assay: Cytotoxicity against human HL60 cells after 48 hrs by MTS assay; type: functional, cell-based; conditions: HL-60, 48 h
SMMC-7721 [7] = assay: Cytotoxicity against human SMMC7721 cells after 48 hrs by MTS assay; type: functional, cell-based; conditions: SMMC-7721, 48 h
A549 [8] = assay: Cytotoxicity against human A549 cells after 48 hrs by MTS assay; type: functional, cell-based; conditions: A549, 48 h
MCF7 [9] = assay: Cytotoxicity against human MCF7 cells after 48 hrs by MTS assay; type: functional, cell-based; conditions: MCF7, 48 h
SW480 [10] = assay: Cytotoxicity against human SW480 cells after 48 hrs by MTS assay; type: functional, cell-based; conditions: SW480, 48 h

| Structure (SMILES) | inhibition of growth at 40 µM (HL-60 [1]) [%] | inhibition of growth at 40 µM (SMMC-7721 [2]) [%] | inhibition of growth at 40 µM (A549 [3]) [%] | inhibition of growth at 40 µM (MCF7 [4]) [%] | inhibition of growth at 40 µM (SW480 [5]) [%] | IC50 (HL-60 [6]) [µM] | IC50 (SMMC-7721 [7]) [µM] | IC50 (A549 [8]) [µM] | IC50 (MCF7 [9]) [µM] | IC50 (SW480 [10]) [µM] |
| --- | --- | --- | --- | --- | --- | --- | --- | --- | --- | --- |
| COc1ccc(-c2oc3c(c(O)cc4oc(C(C)(C)O)cc43)c(=O)c2O[C@@H]2O[C@@H](C)[C@H](O)[C@@H](O)[C@H]2O[C@@H]2O[C@@H](C)[C@H](O)[C@@H](O)[C@H]2O)cc1 | > 50 | > 50 | > 50 | > 50 | > 50 | > 10 | > 10 | > 10 | > 10 | > 10 |
| CC(C)=CCc1c(O)cc(O)c2c(=O)cc(Oc3ccc(O)cc3)oc12 | > 50 | > 50 | > 50 | > 50 | > 50 | > 10 | > 10 | > 10 | > 10 | > 10 |
| CC(C)=CCc1cc(Oc2cc(=O)c3c(O)cc(O)c(CC=C(C)C)c3o2)ccc1O | > 50 | > 50 | > 50 | > 50 | > 50 | > 10 | > 10 | > 10 | > 10 | > 10 |
| CC(C)=CCc1cc(Oc2cc(=O)c3c(O)cc(O)c(CC=C(C)C)c3o2)cc(CC=C(C)C)c1O | > 50 | > 50 | > 50 | > 50 | > 50 | > 10 | > 10 | > 10 | > 10 | > 10 |
| C=C(C)C(O)Cc1c(O)cc(O)c2c(=O)cc(Oc3ccc(O)cc3)oc12 (stereo not given) | > 50 | > 50 | > 50 | > 50 | > 50 | > 10 | > 10 | > 10 | > 10 | > 10 |
| CC(C)=CCc1cc(-c2cc(=O)c3c(O)cc(O)c(CC=C(C)C)c3o2)cc(CC=C(C)C)c1O | > 50 | > 50 | > 50 | > 50 | > 50 | 4.3 | > 10 | 7.1 | 5.4 | 5.1 |
| COc1cc(O)c2c(=O)cc(Oc3ccc(O)cc3)oc2c1C[C@@H](O)C(C)(C)O | > 50 | > 50 | > 50 | > 50 | > 50 | > 10 | > 10 | > 10 | > 10 | > 10 |
| COc1cc(O)c2c(=O)cc(Oc3ccc(O)cc3)oc2c1CC=C(C)C | > 50 | > 50 | > 50 | > 50 | > 50 | > 10 | > 10 | > 10 | > 10 | > 10 |
| CC(=O)O[C@H]1C(=O)[C@@]2(C)[C@H]([C@H](OC(=O)c3ccccc3)[C@]3(O)C[C@H](OC(=O)[C@H](O)[C@@H](NC(=O)c4ccccc4)c4ccccc4)C(C)=C1C3(C)C)[C@]1(OC(C)=O)CO[C@@H]1C[C@@H]2O [PACLITAXEL] |  |  |  |  |  | < 0.008 | < 0.008 | < 0.008 | < 0.008 | < 0.008 |
